Experimental data as given in patent publication US20250163043A1 (TRANSTHERA SCIENCES (NANJING), INC., priority 2021, published 2025).

How the values were obtained:
CDK9/CycT1 [1] = biological target: T1, CDK9/CycT1 (Homo sapiens, UniProt P50750); assay: Off-chip mobility shift assay (MSA) on CDK9/CycT1; type: biochemical; design: Full-length human CDK9 [1-372(end) amino acids of; host or cells: baculovirus expression system; conditions: 4-point concentration (0.0016, 0.008, 0.04, 0.2 uM), ATP 10 μM, reaction time 5 hours, read-out: CDK9/CycT1/nM (inhibitory activity)
T1 sequence (P50750 whole entry): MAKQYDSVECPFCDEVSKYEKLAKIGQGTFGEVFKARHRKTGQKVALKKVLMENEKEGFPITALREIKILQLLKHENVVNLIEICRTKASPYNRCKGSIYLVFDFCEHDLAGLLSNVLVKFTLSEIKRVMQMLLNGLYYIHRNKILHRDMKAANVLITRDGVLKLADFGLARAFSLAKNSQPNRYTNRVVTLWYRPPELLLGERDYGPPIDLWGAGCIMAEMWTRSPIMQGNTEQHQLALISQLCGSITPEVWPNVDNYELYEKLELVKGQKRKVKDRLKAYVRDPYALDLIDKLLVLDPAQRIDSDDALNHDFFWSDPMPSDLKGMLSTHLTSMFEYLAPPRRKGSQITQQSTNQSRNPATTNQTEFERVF
T1 sequence (O60563 whole entry partner): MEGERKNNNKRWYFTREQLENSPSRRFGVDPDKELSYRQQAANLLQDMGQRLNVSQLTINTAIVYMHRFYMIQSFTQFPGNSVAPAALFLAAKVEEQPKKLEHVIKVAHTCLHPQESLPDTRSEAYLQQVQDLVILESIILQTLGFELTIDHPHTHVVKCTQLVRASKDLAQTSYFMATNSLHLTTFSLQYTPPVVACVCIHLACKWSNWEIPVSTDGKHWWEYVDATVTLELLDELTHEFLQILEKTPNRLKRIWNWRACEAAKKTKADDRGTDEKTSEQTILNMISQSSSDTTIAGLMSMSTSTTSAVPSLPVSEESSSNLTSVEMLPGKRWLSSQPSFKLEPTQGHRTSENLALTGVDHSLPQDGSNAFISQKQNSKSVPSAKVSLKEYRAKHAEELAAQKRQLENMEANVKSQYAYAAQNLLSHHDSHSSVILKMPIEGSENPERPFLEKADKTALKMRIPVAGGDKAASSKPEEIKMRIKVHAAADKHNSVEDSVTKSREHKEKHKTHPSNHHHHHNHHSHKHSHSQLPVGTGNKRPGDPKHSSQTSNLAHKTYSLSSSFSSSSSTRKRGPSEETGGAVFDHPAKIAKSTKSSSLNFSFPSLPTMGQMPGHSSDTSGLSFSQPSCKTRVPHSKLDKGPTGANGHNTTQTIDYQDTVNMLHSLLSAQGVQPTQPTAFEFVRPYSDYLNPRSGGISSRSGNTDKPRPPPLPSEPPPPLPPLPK
Procedure: Prepare 100× concentrated Test compound stock solutions with DMSO. Then, Dilute the solution 25 times with Assay Buffer (20 mM HEPES, 0.01% Triton X-100, 2 mM DTT, pH7.5) to prepare 4× test compound solutions.
Test compounds were evaluated at 4-point concentration (0.0016, 0.008, 0.04, 0.2 uM). • 1) Mix 5 μL of 4× test compound solution with 5 μL of 4× substrate/ATP/Metal solution and 10 μL of 2× kinase solution in 384-well polypropylene plate. Incubate for 5 hours at room temperature. • 2) Add 70 μL of Termination Buffer (QuickScout Screening Assist MSA; Carna Biosciences) to stop the reaction. • 3) Separate and detect unphosphorylated/phosphorylated substrate peptides in the reactant using LabChip system (Perkin Elmer). • 4) Evaluate kinase reaction from product ratio (P/(P+S)) calculated by peak height of unphosphorylated substrate(S) and peak height of phosphorylated substrate (P).

CDK9/CycT1 [2] = biological target: T1, CDK9/CycT1; assay: ADP-Glo kinase assay on CDK enzymatic activity, CDK9/CycT1; type: biochemical; conditions: 10 concentrations from 10 μM, 4-fold, 60 min room temperature
Procedure, shortened: (§1)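 Steps: compound (10 μM top, 4-fold series) plus kinase, 10 min RT; add substrate/ATP mix, 60 min RT; ADP-Glo reagent 40 min; detection reagent 40 min; read luminescence. Inhibition referenced to AZD4573 (1 μM) and DMSO vehicle; IC50 by nonlinear fit.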

CDK3/CycE1 = CDK3/CycE1 (Homo sapiens, UniProt Q00526); assay: ADP-Glo kinase assay on CDK enzymatic activity, CDK3/CycE1; type: biochemical; conditions: 10 concentrations from 10 μM, 4-fold, 60 min room temperature
Chain of CDK3/CycE1 (Q00526 whole entry, species assumed): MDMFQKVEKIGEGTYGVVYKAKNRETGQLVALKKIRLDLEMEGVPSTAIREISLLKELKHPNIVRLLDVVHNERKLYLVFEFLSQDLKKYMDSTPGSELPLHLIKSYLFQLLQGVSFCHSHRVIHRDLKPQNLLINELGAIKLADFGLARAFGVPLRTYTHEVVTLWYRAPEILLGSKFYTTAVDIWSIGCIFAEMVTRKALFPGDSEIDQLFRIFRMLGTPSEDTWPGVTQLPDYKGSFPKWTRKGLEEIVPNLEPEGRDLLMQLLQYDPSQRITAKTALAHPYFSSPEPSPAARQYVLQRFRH
Chain of CDK3/CycE1 (P24864 whole entry partner, species assumed): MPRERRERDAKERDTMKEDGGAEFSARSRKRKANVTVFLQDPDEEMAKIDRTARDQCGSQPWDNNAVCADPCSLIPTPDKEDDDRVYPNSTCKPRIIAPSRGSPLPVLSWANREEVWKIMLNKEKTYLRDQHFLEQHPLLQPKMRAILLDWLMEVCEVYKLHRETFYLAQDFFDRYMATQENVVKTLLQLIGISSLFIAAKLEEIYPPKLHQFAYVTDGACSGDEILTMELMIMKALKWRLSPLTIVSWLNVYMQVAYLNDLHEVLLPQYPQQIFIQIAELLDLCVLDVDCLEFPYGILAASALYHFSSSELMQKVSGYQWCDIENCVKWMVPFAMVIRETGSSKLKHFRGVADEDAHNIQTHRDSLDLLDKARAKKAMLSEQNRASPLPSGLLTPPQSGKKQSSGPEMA
Procedure, shortened: as §1

CDK2/CycA2 = CDK2/CycA2 (Homo sapiens, UniProt P24941); assay: ADP-Glo kinase assay on CDK enzymatic activity, CDK2/CycA2; type: biochemical; conditions: 10 concentrations from 10 μM, 4-fold, 60 min room temperature
Procedure, shortened: as §1

[3] = system: MV-4-11 (human myelomonocytic leukemia cells); assay: CCK-8 cell proliferation assay, MV-4-11; type: cell-based; conditions: MV4-11, 24 h incubation, 11 concentrations from 5000 nM, 3-fold, read-out: MV-4-11 cell proliferation IC50 (class)
Procedure: Test samples: the compounds of the present invention, having structures shown above.
MV-4-11 (human myelomonocytic leukemia cells) and NCI-H929 (human myeloma cells).
The compounds were dissolved in DMSO and diluted 3-fold in the 96-well plate to obtain stock solutions with 11 concentration gradients. Each cell was inoculated into a 96-well plate, and the diluted compound stock solution was added to the 96-well plate to obtain a series of 11 concentration gradients of compound solutions with final concentrations of 5000 nM starting and 3-fold gradient decreasing, wherein the final DMSO content was […]. There was a medium containing 1‰ DMSO in the negative control well. The treated cells were incubated at 37° C. with 5% CO2 and 95% humidity, wherein MV-4-11 were incubated for 24 h and NCI-H929 for 72 h. After incubation was completed, each well was added with 10 μL of CCK-8 reagent, incubated for 1-3 h at room temperature and placed in the microplate reader, and the absorbance was read at 450 nm.
The inhibition rate was calculated according to the following formula: […]
ODcmpd: compound absorbance; ODpositive: average value of the absorbance of positive control without compound; ODvehicle: average value of the absorbance of solvent vehicle control.
IC50 values were fitted using GraphPad 7.0 based on inhibition rates of compounds at different concentrations.

CDK5/p25NCK = CDK5/p25NCK (Homo sapiens, UniProt Q00535); assay: ADP-Glo kinase assay on CDK enzymatic activity, CDK5/p25NCK; type: biochemical; conditions: 10 concentrations from 10 μM, 4-fold, 60 min room temperature
Chain of CDK5/p25NCK (Q00535 whole entry, species assumed): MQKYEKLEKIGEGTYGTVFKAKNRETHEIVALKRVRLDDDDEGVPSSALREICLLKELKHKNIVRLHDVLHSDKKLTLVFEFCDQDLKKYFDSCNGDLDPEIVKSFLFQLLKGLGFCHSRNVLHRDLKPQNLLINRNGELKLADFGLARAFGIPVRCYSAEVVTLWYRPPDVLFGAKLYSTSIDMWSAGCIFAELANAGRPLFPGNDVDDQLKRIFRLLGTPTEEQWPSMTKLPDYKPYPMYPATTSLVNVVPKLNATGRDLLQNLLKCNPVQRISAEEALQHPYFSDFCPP
Chain of CDK5/p25NCK (Q15078 99-307 partner limits assumed, species assumed): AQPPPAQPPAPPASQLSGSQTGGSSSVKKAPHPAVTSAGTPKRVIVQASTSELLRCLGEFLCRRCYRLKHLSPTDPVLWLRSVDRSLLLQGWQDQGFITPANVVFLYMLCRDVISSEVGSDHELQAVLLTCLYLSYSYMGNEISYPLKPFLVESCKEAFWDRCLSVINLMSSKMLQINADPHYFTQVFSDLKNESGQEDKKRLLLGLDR
Procedure, shortened: as §1

CDK1/CycE1 = CDK1/CycE1 (Homo sapiens, UniProt P06493); assay: ADP-Glo kinase assay on CDK enzymatic activity, CDK1/CycE1; type: biochemical; conditions: ADP-Glo; 10 concentrations from 10 μM, 4-fold; 60 min room temperature; read-out: CDK1/CycE1/nM (IC50)
Chain of CDK1/CycE1 (P06493 whole entry, species assumed): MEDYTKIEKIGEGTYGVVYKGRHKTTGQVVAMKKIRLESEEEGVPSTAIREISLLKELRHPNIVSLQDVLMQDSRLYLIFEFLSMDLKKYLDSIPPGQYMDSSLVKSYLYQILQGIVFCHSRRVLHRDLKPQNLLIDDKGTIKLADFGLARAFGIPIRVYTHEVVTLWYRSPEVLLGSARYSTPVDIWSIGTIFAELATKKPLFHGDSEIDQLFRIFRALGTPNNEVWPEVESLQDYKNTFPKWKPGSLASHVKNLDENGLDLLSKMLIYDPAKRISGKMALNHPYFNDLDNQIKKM
Chain of CDK1/CycE1 (P24864 whole entry partner, species assumed): as the sequence (P24864 whole entry partner, species assumed) above
Procedure, shortened: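 Compounds in 10-point 4-fold dilutions from 10 μM final, preincubated 10 min with kinase, then substrate/ATP added; 60 min reaction at room temperature. ADP-Glo luminescence read.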

IC50 (CDK9/CycT1 [1]) | IC50 (CDK9/CycT1 [2]) | IC50 (CDK3/CycE1) | IC50 (CDK2/CycA2) | IC50 [3] | IC50 (CDK5/p25NCK) | IC50 (CDK1/CycE1) | Compound
85 nM |  |  |  |  |  |  | CC(C)Nc1nc([C@@H](C)O)cc2cnc(NC3CC[C@H](C(=O)O)C3)nc12 (stereo in doubt) [Compound 77, (1S,3R)-3-((6-((R)-1-hydroxyethyl)-8-(isopropylamino)pyrido[3,4-d]pyrimidin-2-yl)amino)cyclopentane-1-carboxylic acid]
21 nM |  |  |  |  |  |  | CC(=O)N[C@H]1CC[C@H](Nc2ncc3cc([C@@H](C)O)nc(NC(C)C)c3n2)CC1 [Compound 65, N-((1R,4r)-4-((6-((R)-1-hydroxyethyl)-8-(isopropylamino)pyrido[3,4-d]pyrimidin-2-yl)amino)cyclohexyl)acetamide]
5 nM |  |  |  |  |  |  | CC(C)Nc1nc(C#N)cc2cnc(N[C@H]3CC[C@H](NC(=O)CN(C)C)CC3)nc12 [Compound 66, N-((1r,4r)-4-((6-cyano-8-(isopropylamino)pyrido[3,4-d]pyrimidin-2-yl)amino)cyclohexyl)-2-(dimethylamino)acetamide]
10 nM |  |  |  |  |  |  | CC(C)Nc1nc([C@@H](C)O)cc2cnc(N[C@H]3CC[C@H](N4CCN(C)CC4)CC3)nc12 [Compound 67, (R)-1-(8-(isopropylamino)-2-(((1r,4R)-4-(4-methylpiperazin-1-yl)cyclohexyl)amino)pyrido[3,4-d]pyrimidin-6-yl)ethan-1-ol]
 | 18 nM | 831 nM | 443 nM | 400 to 1000 nM | 435 nM | 947 nM | CC(C)Nc1nc(C#N)cc2cnc(N[C@H]3CC[C@H](C)NC3)nc12 [Compound 107, 8-(isopropylamino)-2-(((3S,6S)-6-methylpiperidin-3-yl)amino)pyrido[3,4-d]pyrimidine-6-carbonitrile]
 | 9 nM | 413 nM | 504 nM | 400 to 1000 nM | 1170 nM | 216 nM | CC(C)Nc1nc(C#N)cc2cnc(NC3CCNCC3)nc12 [Compound 114, 8-(isopropylamino)-2-(piperidin-4-ylamino)pyrido[3,4-d]pyrimidine-6-carbonitrile]
 | 3 nM | 215 nM | 531 nM | 400 to 1000 nM | 2230 nM | 158 nM | C[C@@H](Nc1nc(C#N)cc2cnc(N[C@H]3CCCNC3)cc12)c1ccccc1 [Compound 147, 1-(((R)-1-phenylethyl)amino)-7-(((S)-piperidin-3-yl)amino)-2,6-naphthyridine-3-carbonitrile]

More lines, now with the values behind:

Compound | IC50 (CDK9/CycT1 [1]) | IC50 (CDK9/CycT1 [2]) | IC50 (CDK3/CycE1) | IC50 (CDK2/CycA2) | IC50 [3] | IC50 (CDK5/p25NCK) | IC50 (CDK1/CycE1)
CC(=O)N[C@@H]1CCC[C@H](C(=O)Nc2cc3c(NC(C)C)nc(C(F)F)cc3cn2)C1 [Compound 1, (1S,3R)-3-acetamido-N-(7-(difluoromethyl)-5-(isopropylamino)-2,6-naphthyridin-3-yl)cyclohexane-1-carboxamide] | 7 nM |  |  |  |  |  | 
CC(C)Nc1nc(C#N)cc2cnc(NC(=O)[C@H]3CCC[C@H](N)C3)cc12 [Compound 27, (1S,3S)-3-amino-N-(7-cyano-5-(isopropylamino)-2,6-naphthyridin-3-yl)cyclohexane-1-carboxamide] |  | 51 nM | 1630 nM | 2520 nM | 400 to 1000 nM | 3960 nM | 
CC(C)Nc1nc(C#N)cc2cnc(N[C@H]3CCNC3)cc12 [Compound 31, (S)-1-(isopropylamino)-7-(pyrrolidin-3-ylamino)-2,6-naphthyridine-3-carbonitrile] |  | 4 nM | 1300 nM | 594 nM | 400 to 1000 nM | 1480 nM | 
CN[C@@H]1CC[C@H](Nc2cc3c(NC(C)C)nc(C#N)cc3cn2)C1 [Compound 32, 1-(isopropylamino)-7-(((1S,3R)-3-(methylamino)cyclopentyl)amino)-2,6-naphthyridine-3-carbonitrile] |  | 7 nM | 2050 nM | 1080 nM | 400 to 1000 nM | 1580 nM | 
CC(C)Nc1nc(C#N)cc2cnc(N[C@H]3CC[C@@H](O)C3)cc12 [Compound 36, 7-(((1S,3R)-3-hydroxycyclopentyl)amino)-1-(isopropylamino)-2,6-naphthyridine-3-carbonitrile] |  | 1 nM | 23 nM | 4 nM | 400 to 1000 nM | 7 nM | 
CC(C)Nc1nc(C#N)cc2cnc(N[C@@H]3CN[C@H](CO)C3)cc12 [Compound 37, 7-(((3S,5S)-5-(hydroxymethyl)pyrrolidin-3-yl)amino)-1-(isopropylamino)-2,6-naphthyridine-3-carbonitrile] |  | 5 nM | 1130 nM | 520 nM | > 1000 nM | 941 nM | 
CC(C)Nc1nc(C#N)cc2cnc(N[C@@H]3CNCC[C@@H]3F)cc12 [Compound 42, 7-(((3R,4S)-4-fluoropiperidin-3-yl)amino)-1-(isopropylamino)-2,6-naphthyridine-3-carbonitrile] |  | 18 nM | 1300 nM | 2020 nM | > 1000 nM | 3040 nM | 
CC(=O)N[C@H]1CC[C@H](Nc2ncc3cc(C#N)nc(NC(C)C)c3n2)C1 [Compound 46, N-((1S,3S)-3-((6-cyano-8-(isopropylamino)pyrido[3,4-d]pyrimidin-2-yl)amino)cyclopentyl)acetamide] |  | 3 nM | 271 nM | 33 nM | 400 to 1000 nM | 72 nM | 
CC(=O)N[C@@H]1CC[C@H](Nc2cc3c(NC(C)C)nc(C#N)cc3cn2)C1 [Compound 47, N-((1R,3S)-3-((7-cyano-5-(isopropylamino)-2,6-naphthyridin-3-yl)amino)cyclopentyl)acetamide] |  | 17 nM | 987 nM | 494 nM | 400 to 1000 nM | 1050 nM | 
CC(C)Nc1nc(C(F)F)cc2cnc(N[C@H]3CC[C@@H](N)C3)cc12 [Compound 53, N7-((1S,3R)-3-aminocyclopentyl)-3-(difluoromethyl)-N^1-isopropyl-2,6-naphthyridine-1,7-diamine] |  | 2 nM | 315 nM | 161 nM | 400 to 1000 nM | 549 nM | 709 nM
COCCN[C@H]1CC[C@H](Nc2cc3c(NC(C)C)nc(C#N)cc3cn2)C1 [Compound 56, 1-(isopropylamino)-7-(((1S,3S)-3-((2-methoxyethyl)amino)cyclopentyl)amino)-2,6-naphthyridine-3-carbonitrile] |  | 3 nM | 1110 nM | 656 nM | 400 to 1000 nM | 927 nM | 
CC(C)Nc1nc(C#N)cc2cnc(N[C@H]3CCCN(C)C3)cc12 [Compound 57, (S)-1-(isopropylamino)-7-((1-methylpiperidin-3-yl)amino)-2,6-naphthyridine-3-carbonitrile] |  | 30 nM | 2520 nM | 427 nM | > 1000 nM | 1760 nM | 
CC(C)Nc1nc([C@@H](C)O)cc2cnc(N[C@H]3CC[C@H](NC(=O)CN(C)C)CC3)nc12 [Compound 63, 2-(dimethylamino)-N-((1R,4r)-4-((6-((R)-1-hydroxyethyl)-8-(isopropylamino)pyrido[3,4-d]pyrimidin-2-yl)amino)cyclohexyl)acetamide] | 14 nM |  |  |  |  |  | 
C[C@@H](O)c1cc2cnc(N[C@H]3CC[C@H](NC(=O)CN(C)C)CC3)nc2c(NCC(C)(C)C)n1 [Compound 64, 2-(dimethylamino)-N-((1R,4r)-4-((6-((R)-1-hydroxyethyl)-8-(neopentylamino)pyrido[3,4-d]pyrimidin-2-yl)amino)cyclohexyl)acetamide] | 26 nM |  |  |  |  |  | 
